Laboratory results as given in publication PMC6017115, “Inhibitory Effect of Sauchinone on UDP-Glucuronosyltransferase (UGT) 2B7 Activity” (Molecules : A Journal of Synthetic Chemistry and Natural …, 2018).

Legend:
Assay type in all cases: in vitro ADME
UGT1A1 = target: T1, UGT1A1 (Homo sapiens, UniProt P22309); assay: Inhibition of UGT1A1 (β-estradiol glucuronidation) in human liver microsomes; conditions: substrate 10 μM β-estradiol, mean (minimum–maximum)
T1 construct: The reaction mixture containing 0.25 mg/mL protein of HLM; tissue Corning Life Sciences 452156; host or cells: pooled human liver microsomes, 50 donors
T1 sequence (P22309 26-533): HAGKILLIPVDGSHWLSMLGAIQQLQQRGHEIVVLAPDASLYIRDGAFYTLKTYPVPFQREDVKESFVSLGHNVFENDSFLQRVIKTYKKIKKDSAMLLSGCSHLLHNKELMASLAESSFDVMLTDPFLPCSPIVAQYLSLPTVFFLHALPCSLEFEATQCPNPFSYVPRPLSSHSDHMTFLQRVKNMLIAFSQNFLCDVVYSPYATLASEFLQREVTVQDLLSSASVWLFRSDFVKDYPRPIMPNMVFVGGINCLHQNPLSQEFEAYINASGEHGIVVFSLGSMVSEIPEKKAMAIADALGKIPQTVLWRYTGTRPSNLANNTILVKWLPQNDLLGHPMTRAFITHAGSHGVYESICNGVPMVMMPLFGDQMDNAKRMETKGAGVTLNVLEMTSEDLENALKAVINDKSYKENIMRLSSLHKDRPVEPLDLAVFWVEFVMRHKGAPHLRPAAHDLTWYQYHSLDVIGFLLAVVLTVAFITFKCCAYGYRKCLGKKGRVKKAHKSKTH
Method: (§1) Their IC50 values were compared to that of sauchinone. […] UGT-mediated activities in the presence of sauchinone as an inhibitor were expressed as percentages of corresponding control values (in absence of sauchinone). From percentages of control activity versus inhibitor concentrations, a sigmoid shaped curve was fitted to the data and IC50 as an enzyme inhibition parameter was calculated by fitting the Hill equation to the data using GraphPad Prism 5 (GraphPad Software Inc., San Diego, CA, USA).

UGT1A3 = target: T2, UGT1A3 (Homo sapiens, UniProt P35503); assay: Inhibition of UGT1A3 (chenodeoxy cholic acid glucuronidation) in human liver microsomes; conditions: substrate 15 μM chenodeoxy cholic acid, mean (minimum–maximum)
T2 construct: The reaction mixture containing 0.25 mg/mL protein of HLM; tissue Corning Life Sciences 452156; host or cells: pooled human liver microsomes, 50 donors
T2 sequence (P35503 29-534): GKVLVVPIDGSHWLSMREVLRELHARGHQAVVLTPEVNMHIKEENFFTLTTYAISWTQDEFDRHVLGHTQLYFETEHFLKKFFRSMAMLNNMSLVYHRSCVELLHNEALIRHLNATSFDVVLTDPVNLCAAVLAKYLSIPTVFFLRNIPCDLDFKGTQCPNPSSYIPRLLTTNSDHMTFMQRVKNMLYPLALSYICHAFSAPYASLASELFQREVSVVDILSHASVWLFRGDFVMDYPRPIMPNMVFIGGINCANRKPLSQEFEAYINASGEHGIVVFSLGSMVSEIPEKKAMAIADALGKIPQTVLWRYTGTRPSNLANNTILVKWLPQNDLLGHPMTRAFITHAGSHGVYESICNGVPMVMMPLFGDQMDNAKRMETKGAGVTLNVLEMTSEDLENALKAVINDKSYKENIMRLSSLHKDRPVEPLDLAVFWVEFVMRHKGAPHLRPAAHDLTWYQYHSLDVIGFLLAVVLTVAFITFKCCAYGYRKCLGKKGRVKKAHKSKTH
Method: as §1

Ugt1a9 = target: T3, Ugt1a9 (Mus musculus, UniProt Q62452); assay: Inhibition of Ugt1a9 (propofol) in mice liver microsomes; conditions: pH 7.6, probe propofol (100 μM, in UGT substrate cocktail), read-out: IC50 of Ugt1a9-catalyzed propofol
T3 construct: from tissue; host or cells: mouse liver microsomes prepared in house
T3 sequence (Q62452 24-528): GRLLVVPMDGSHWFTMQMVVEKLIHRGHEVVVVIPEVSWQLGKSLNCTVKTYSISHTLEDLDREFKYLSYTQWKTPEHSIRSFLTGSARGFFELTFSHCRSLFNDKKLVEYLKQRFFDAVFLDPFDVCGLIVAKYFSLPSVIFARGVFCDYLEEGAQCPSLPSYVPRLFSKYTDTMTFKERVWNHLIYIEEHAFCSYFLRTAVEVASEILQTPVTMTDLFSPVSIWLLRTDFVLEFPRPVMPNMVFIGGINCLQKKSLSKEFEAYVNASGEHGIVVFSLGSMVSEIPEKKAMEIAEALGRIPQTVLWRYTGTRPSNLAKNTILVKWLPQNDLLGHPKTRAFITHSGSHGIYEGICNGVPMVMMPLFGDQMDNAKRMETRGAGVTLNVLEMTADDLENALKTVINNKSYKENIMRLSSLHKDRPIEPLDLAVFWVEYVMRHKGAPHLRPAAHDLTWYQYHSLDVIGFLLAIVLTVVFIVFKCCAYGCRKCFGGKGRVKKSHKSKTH
Method: Their IC50 values were compared to that of sauchinone. […] Mice were sacrificed and then livers were removed and rinsed with saline. After weighing the livers, they were homogenized with a four-fold volume of ice-cold homogenizing buffer (0.154 M KCl, 50 mM Tris-base, 1 mM EDTA, pH 7.4). After centrifugation for 35 min at 9000× g and 4 °C, the supernatants were centrifuged for 95 min at 100,000× g and at 4 °C. The supernatants were discarded and the pellets were homogenized again with ice-cold homogenizing buffer. These aliquots were stored at −80 °C. The subsequent process to evaluate the inhibitory effects of sauchinone on UGT activities in MLM was the same as those using HLM. UGT-mediated activities in the presence of sauchinone as an inhibitor were expressed as percentages of corresponding control values (in absence of sauchinone). From percentages of control activity versus inhibitor concentrations, a sigmoid shaped curve was fitted to the data and IC50 as an enzyme inhibition parameter was calculated by fitting the Hill equation to the data using GraphPad Prism 5 (GraphPad Software Inc., San Diego, CA, USA).

UGT2B7 = target: T4, UGT2B7 (Homo sapiens, UniProt P16662); assay: Inhibition of UGT2B7 (zidovudine glucuronidation) in human liver microsomes; parameters: tissue Corning Life Sciences 452156; host or cells: pooled human liver microsomes
T4 sequence (P16662 24-529): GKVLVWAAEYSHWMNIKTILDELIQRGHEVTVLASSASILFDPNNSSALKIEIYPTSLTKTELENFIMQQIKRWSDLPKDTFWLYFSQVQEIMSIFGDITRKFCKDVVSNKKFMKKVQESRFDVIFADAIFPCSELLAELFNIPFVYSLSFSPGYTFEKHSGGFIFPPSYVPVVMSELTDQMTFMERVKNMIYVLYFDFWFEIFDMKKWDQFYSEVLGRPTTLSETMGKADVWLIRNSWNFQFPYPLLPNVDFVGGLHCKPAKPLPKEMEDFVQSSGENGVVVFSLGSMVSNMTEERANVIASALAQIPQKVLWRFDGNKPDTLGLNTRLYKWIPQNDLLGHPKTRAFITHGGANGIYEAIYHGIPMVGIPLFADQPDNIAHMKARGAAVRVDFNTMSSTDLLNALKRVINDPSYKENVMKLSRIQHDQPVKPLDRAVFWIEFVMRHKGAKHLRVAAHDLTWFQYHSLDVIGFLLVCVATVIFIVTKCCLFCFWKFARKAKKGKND
Method: as §1

IC50 (UGT1A1): 8.83 µM | IC50 (UGT1A3): 43.9 µM | IC50 (Ugt1a9): 29.8 µM | IC50 (UGT2B7): 0.279 µM
SMILES: C[C@@H]1[C@H]2c3cc4c(cc3O[C@@]35OCOC3=CC(=O)[C@H](C[C@H]1C)[C@@H]25)OCO4 [Sauchinone]
